Measured values taken from US8835421B2, “Benzimidazole linked pyrrolo[2,1-c[1,4] benzodiazepine hybrids as potential antitumour agents and process for the preparation thereof” (Council of Scientific and Industrial Research, priority 2008, dated 2014).

Test system: calf thymus DNA (CT-DNA)
Assay: Thermal denaturation studies with duplex-form calf thymus DNA
Type: binding
Conditions: [PBD]:[DNA] 1:5, CT-DNA 100 μM, ligand 20 μM, sodium phosphate buffer pH 7.00; for ΔTm after incubation at 37° C. for 0 h: 0 h incubation at 37° C.; for ΔTm after incubation at 37° C. for 18 h: 18 h incubation at 37° C.
Procedure: Compounds have been subjected to thermal denaturation studies with duplex-form calf thymus DNA (CT-DNA) using an modification of a reported procedure (Newman, M. S. Carcinog-compr. Surv. 1976, 1, 203; (b) Hecht, S. S.; Loy, M.; Hoffman, Carcinog-compr. Surv. 1976, 1, 325). Working solutions in aqueous buffer (10 mM NaH2PO4/Na2HPO4, 1 mM Na2EDTA, pH 7.00+0.01) containing CT-DNA (100 μm in phosphate) and the PBD (20 μm) have been prepared by addition of concentrated PBD solutions in DMSO to obtain a fixed [PBD]/[DNA] molar ratio of 1:5. The DNA-PBD solutions have been incubated at 37° C. for 0 and 18 h prior to analysis. Samples have been, monitored at 260 nm using a Beckman DU-800 spectrophotometer fitted with high performance temperature controller, and heated at 1° C. min^−1 in the 40-110° C. range. DNA helix→coil transition temperatures (Tm) have been obtained from the maxima in the d(A260)/d T derivative plots. Drug-induced alterations in DNA melting behavior are given by: ΔTm=Tm(DNA+PBD)−Tm(DNA alone), where the Tm value for the PBD-free CT-DNA is 69.1±0.01.
The DNA binding activity for these novel C8-linked benzimidazole-PBD hybrids has been examined by thermal denaturation studies using calf thymus (CT) DNA. […] The data for the compounds 8a-g, 11a-d and 14 is included in Table 1 for comparison.

| Compound | ΔTm after incubation at 37° C. for 0 h [°C] | ΔTm after incubation at 37° C. for 18 h [°C] |
| --- | --- | --- |
| COc1cc2c(cc1OCCCCCn1c(-c3ccccn3)nc3ccccc31)N=C[C@@H]1CCCN1C2=O [Compound 11b, 7-Methoxy-8-{5-[2-(2-pyridyl)-1H-benzimidazol-1-yl]pentyl}oxy-(11aS)-1,2,3,11a-tetrahydro-5H-pyrrolo[2,1-c][1,4]benzodiazepin-5-one] | 1.0 | 1.2 |
| CCOC(=O)c1ccc2nc(-c3ccc(OCc4ccccc4)cc3)n(CCCCCOc3cc4c(cc3OC)C(=O)N3CCC[C@H]3C=N4)c2c1 [Compound 11d, Ethyl-2-[4-(benzyloxy)phenyl]-[(5-(11aS)-7-methoxy-1,2,3,11a-tetrahy-dro-5H-pyrrolo[2,1-c][1,4]benzodiazepin-5-one-8-yl)oxypentyl]-2-benzimidazol-6-carboxylate] | 2.0 | 3.0 |
| COc1cc2c(cc1OCCCn1c(-c3ccco3)nc3ccccc31)N=C[C@@H]1CCCN1C2=O [Compound 8a, 7-Methoxy-8-{3-[2-(2-furyl)-1H-benzimidazol-1-yl]propyl}oxy-(11aS)-1,2,3,11a-tetrahydro-5H-pyrrolo[2,1-c][1,4]benzodiazepin-5-one] | 5.1 | 6.1 |
| COc1cc2c(cc1O)N=CC1CCCN1C2=O (stereo not shown) [DC-81, reference compound] | 0.3 | 0.7 |
| COc1cc2c(cc1OCCCCCn1c(-c3cccs3)nc3ccccc31)N=C[C@@H]1CCCN1C2=O [Compound 8f, 7-Methoxy-8-{5-[2-(2-thienyl)-1H-benzimidazol-1-yl]pentyl}oxy-(11aS)-1,2,3,11a-tetrahydro-5H-pyrrolo[2,1-c][1,4]benzodiazepin-5-one] | 6.1 | 6.1 |
| COc1cc2c(cc1OCCCn1c(-c3cccn3C)nc3ccccc31)N=C[C@@H]1CCCN1C2=O [Compound 8g, 7-Methoxy-8-{3-[2-(1-Methyl-2-pyrrolyl)-1H-benzimidazol-1,4]propyl}-oxy-(11aS)-1,2,3,11a-tetrahydro-5H-pyrrolo[2,1-c][1,4]benzodiazepin-5-one] | 2.0 | 3.1 |
| COc1cc2c(cc1OCCCn1c(-c3cccs3)nc3ccccc31)N=C[C@@H]1CCCN1C2=O [Compound 8d, 7-Methoxy-8-{3-[2-(2-thienyl)-1H-benzimidazol-1-yl]propyl}oxy-(11aS)-1,2,3,11a-tetrahydro-5H-pyrrolo[2,1-c][1,4]benzodiazepin-5-one] | 3.9 | 5.1 |
| COc1cc2c(cc1OCCCCn1c(-c3ccco3)nc3ccccc31)N=C[C@@H]1CCCN1C2=O [Compound 8b, 7-Methoxy-8-{4-[2-(2-furyl)-1H-benzimidazol-1-yl]butyl}oxy-(11aS)-1,2,3,11a-tetrahydro-5H-pyrrolo[2,1-c][1,4]benzodiazepin-5-one] | 0.1 | 1.0 |
